Read-outs that look alike come from different tables or passages of the source. Each block holds one compound with its values, some of them ahead of it. Numbered stars: 1 amine (or outer) side, 2 acyl side, 3 side chain; on linkers, the order of the positions; unused ones are H or OH. Square brackets hold non-standard residues; d marks the D form. Peptide text beside a SMILES is read from it. * marks the point of attachment. DOTA = O=C(O)CN1CCN(CC(=O)O)CCN(CC(=O)*)CCN(CC(=O)O)CC1; X1 = O=C(Cn1cc([C@H](Cc2ccc(O)cc2)N[*:1])nn1)[*:2]; Nle = CCCC[C@H](N)C(=O)O
Columns and labels:
Blood plasma stability = assay type: in vitro ADME, human
Procedure: Stock solutions were prepared by dissolving the reference substances (Nle^15]-MG11 and PP-F11-N) or the triazolominigastrins (1 mg, 750 nmol) in ammonium acetate buffer (50 µL, 0.5 M, pH 5.5) and addition of water to a final peptide concentration of 250 µM (approx. 0.3 mg/mL). For in vitro experiments, DOTA-functionalized compounds (1 nmol, 4 µL of 250 µM stock solution) were added to a mixture of aq. HCl (22.5 µL, 0.05 M, pH 1.3), ammonium acetate buffer (10 µL, 0.5 M, pH 5.5) and aq. sodium ascorbate (5 µL, 0.5 M). 20-25 MBq of [^177Lu]LuCl3 (ca. 2.5 µL, in 0.04 M HCl, 20-25 MBq/nmol) were added and the mixtures were heated to 95 °C for 20 min in a heating block. After labeling, a 1 µL aliquot of the labeling mixture was added to aq. DTPA (200 µL, 25 µM) for quality control by γ-HPLC.
The ^177Lu-labeled compounds were diluted with 0.9% NaCl to a concentration of 3.75 µM and incubated (375 pmol, 100 µL, 7.5-12 MBq) in human blood plasma (1.5 mL) at 37 °C. At different time points (0.5, 1, 2, 4, 6 and 24 h) aliquots (75 µL) were taken and the proteins were precipitated in CH3CN (100 µL) and centrifuged (2 min, 14680 rpm, rt). The supernatant (75 µL) was diluted with water (75 µL) and analyzed by γ-HPLC. One phase decay nonlinear regression (A = A0 ^∗ e^-kt) was used to calculate the half-lifes (t1/2) of the peptide conjugates with GraphPad Prism (n=2-3).

CCK2R-positive tumors = details: cited from earlier work
A431-CCK2R cells = experiment: Cell internalization experiments with 177Lu-labeled conjugates; assay type: cell-based, Human
Procedure: Stock solutions were prepared by dissolving the reference substances (Nle^15]-MG11 and PP-[…]) or the triazolominigastrins (1 mg, 750 nmol) in ammonium acetate buffer (50 μL, 0.5 M, pH 5.5) and addition of water to a final peptide concentration of 250 μM (approx. 0.3 mg/mL). For in vitro experiments, DOTA-functionalized compounds (1 nmol, 4 μL of 250 μM stock solution) were added to a mixture of aq. HCl (22.5 μL, 0.05 M, pH 1.3), ammonium acetate buffer (10 μL, 0.5 M, pH 5.5) and aq. sodium ascorbate (5 μL, 0.5 M). 20-25 MBq of [^177Lu]LuCl3 (ca. 2.5 μL, in 0.04 M HCl, 20-25 MBq/nmol) were added and the mixtures were heated to 95 °C for 20 min in a heating block. After labeling, a 1 μL aliquot of the labeling mixture was added to aq. DTPA (200 μL, 25 μM) for quality control by γ-HPLC. Human epidermoid carcinoma cells A431 stably transfected to express the CCK2R (A431-CCK2R cells)[Aloj L., Journal of Nuclear Medicine, 2004, 45, 485-494] were grown in monolayers in NunclonTM Delta treated cell culture flasks in humidified air at 5% CO2 and 37 °C. The cells were maintained in the culture medium DMEM (high glucose (4.5 g/L)) supplemented with 20 mM L-Gln and 10% FCS. The culture was passaged regularly at 80 to 90% confluency using a 0.25% trypsin 0.38‰ EDTA solution. Assays were conducted in the assay medium DMEM (high glucose) containing 0.1% BSA. On the day prior to the experiment A431-CCK2R cells were placed in six-well plates (0.85·10^6 cells/well) in cell culture medium and incubated overnight for attachment. On the day of the experiment, the medium was removed and the cells were washed twice with 1 mL PBS. The plates were put on ice for preparation. 0.9 mL of assay medium was dispensed to all wells except the ones for nonspecific binding. 0.2 pmol of ^177Lu-labeled conjugates (100 μL, 2 nM in assay medium, ca. 4.2 kBq) were dispensed to all wells. For the determination of nonspecific binding, a 5000-fold excess of […] (1 nmol, 100 μL, 10 μM in assay medium) was added to 0.8 mL of assay medium containing the ^177Lu-labeled conjugates. The plates were incubated at 37 °C in 5% CO2 to allow binding and internalization. The process was stopped after 30, 60, 120, and 240 min by collection of the supernatant. The cells were washed twice with PBS (each 0.6 mL). The combined supernatants represent the free, unbound fraction of radioactivity. Membrane-bound activity was determined by incubating the cells with cold saline glycine buffer (0.6 mL, 0.05 M, pH 2.8) twice for 5 min at rt. The internalized fraction was isolated by two cycles of cell lysis with NaOH (each 0.6 mL, 1 M, 10 min, rt). The radioactivity of the fractions was measured by a COBRA-II gamma counter and is represented as percentage of total applied radioactivity dosage (n=3-5 in triplicates).

[1] = compared with PP-F11N, Figure 1
[2] = compared with [Nle^15]MG11, Figure 1

stability in plasma over 24 hours (Blood plasma stability): high stability
Compound: CCCC[C@H](NC(=O)[C@H](Cc1c[nH]c2ccccc12)NC(=O)Cn1cc([C@H](Cc2ccc(O)cc2)NC(=O)[C@H](C)NC(=O)[C@@H](CCC(=O)O)NC(=O)[C@@H](CCC(=O)O)NC(=O)[C@@H](CCC(=O)O)NC(=O)[C@@H](CCC(=O)O)NC(=O)[C@@H](CCC(=O)O)NC(=O)[C@@H](CCC(=O)O)NC(=O)CN2CCN(CC(=O)O)CCN(CC(=O)O)CCN(CC(=O)O)CC2)nn1)C(=O)N[C@@H](CC(=O)O)C(=O)N[C@@H](Cc1ccccc1)C(N)=O [NMG 6, DOTA-(DGlu)5-DGlu-Ala-Tyr-Ψ[Tz]-Gly-Trp-Nle-Asp-Phe-NH2]

Compound: CCCC[C@H](NC(=O)[C@H](Cc1c[nH]c2ccccc12)NC(=O)CNC(=O)[C@H](Cc1ccc(O)cc1)NC(=O)[C@H](C)NC(=O)[C@@H](CCC(=O)O)NC(=O)[C@@H](CCC(=O)O)NC(=O)[C@@H](CCC(=O)O)NC(=O)[C@@H](CCC(=O)O)NC(=O)[C@@H](CCC(=O)O)NC(=O)[C@@H](CCC(=O)O)NC(=O)CN1CCN(CC(=O)O)CCN(CC(=O)O)CCN(CC(=O)O)CC1)C(=O)N[C@@H](CC(=O)O)C(=O)N[C@@H](Cc1ccccc1)C(N)=O [PP-F11N, reference compound]
stability in plasma over 24 hours (Blood plasma stability; 177Lu-labeled, human blood plasma, 37 °C, over 24 hours, Figure 3): high stability
tumor-to-kidney ratio (CCK2R-positive tumors; according to WO 2015/067473 A1): excellent

stability in plasma (Blood plasma stability): reduced stability
Compound: CCCC[C@H](NC(=O)[C@H](Cc1c[nH]c2ccccc12)NC(=O)Cn1cc([C@H](Cc2ccc(O)cc2)NC(=O)[C@H](C)NC(=O)[C@@H](CCC(=O)O)NC(=O)CN2CCN(CC(=O)O)CCN(CC(=O)O)CCN(CC(=O)O)CC2)nn1)C(=O)N[C@@H](CC(=O)O)C(=O)N[C@@H](Cc1ccccc1)C(N)=O [TZMG 6, DOTA-DGlu-Ala-Tyr-Ψ[Tz]-Gly-Trp-Nle-Asp-Phe-NH2] ({DOTA}-[dE]A[X1]W[Nle]DF-NH2)

stability in plasma (Blood plasma stability): significantly higher stability
Compound: CCCC[C@H](NC(=O)[C@H](Cc1c[nH]c2ccccc12)NC(=O)Cn1cc([C@H](Cc2ccc(O)cc2)n2cc([C@H](C)n3cc([C@@H](CCC(=O)O)NC(=O)CN4CCN(CC(=O)O)CCN(CC(=O)O)CCN(CC(=O)O)CC4)nn3)nn2)nn1)C(=O)N[C@@H](CC(=O)O)C(=O)N[C@@H](Cc1ccccc1)C(N)=O [TZMG 876, DOTA-DGlu-Ψ[Tz]-Ala-Ψ[Tz]-Tyr-Ψ[Tz]-Gly-Trp-Nle-Asp-Phe-NH2]

stability in plasma over 24 hours (Blood plasma stability): high stability
Compound: DOTA-(DGlu)5-DGlu-Ψ[Tz]-Ala-Tyr-Ψ[Tz]-Gly-Trp-Nle-Asp-Phe-NH2 [NMG 86]
cell internalization after 4 h (A431-CCK2R cells; [1]): higher
cell internalization kinetics (A431-CCK2R cells; [1]): faster

Compound: DOTA-DGlu-DGlu-DGlu-DGlu-DGlu-DGlu-Ala-Tyr-Gly-Trp-Met-Asp-Phe-NH2 [PP-F11]
accumulation in the tumor (CCK2R-positive tumors; [^177Lu]Lu-PP-F11): high favorable accumulation
accumulation in the kidneys (CCK2R-positive tumors; in vivo): low accumulation

stability in plasma (Blood plasma stability): significantly higher stability
Compound: DOTA-DGlu-Ψ[Tz]-Ala-Tyr-Ψ[Tz]-Gly-Trp-Nle-Asp-Phe-NH2 [TZMG 86]
cell internalization after 4 h (A431-CCK2R cells; [2]): higher
cell internalization kinetics (A431-CCK2R cells; [2]): faster
